Reference: patent publication EP4653451A1, “POLYPEPTIDE COMPOUND AND USE THEREOF” (Chengdu New Radiomedicine Technology Co., Ltd., priority 2023, dated 2024)
Counter-ions that a name gives are not always drawn. Like-named read-outs stand apart in the source and are kept apart here. Numbered stars: 1 amine (or outer) side, 2 acyl side, 3 side chain; on linkers, the order of the positions; unused ones are H or OH. Bridge positions count the residues as written; N and C are the ends. Square brackets hold non-standard residues; d marks the D form. Peptide text beside a SMILES is read from it. * marks the point of attachment. TBMB(SCH2CH2NH-DOTA) = O=C(O)CN1CCN(CC(=O)O)CCN(CC(=O)NCCSCc2cc(C[*:1])cc(C[*:2])c2)CCN(CC(=O)O)CC1; X4 = CC(=O)NC[C@H](CSCc1cccc(C[*:1])c1)N[*:2]; X6 = NC[C@H](CSCc1cccc(C[*:1])c1)N[*:2]; 1Nal = N[C@@H](Cc1cccc2ccccc12)C(=O)O; d1Nal = N[C@H](Cc1cccc2ccccc12)C(=O)O; mXylylene = c1cc(C[*:1])cc(C[*:2])c1; Cha = N[C@@H](CC1CCCCC1)C(=O)O; d(β3hC) = N[C@H](CS)CC(=O)O; β3hC = N[C@@H](CS)CC(=O)O; Hexanoyl = CCCCCC(=O)*

Experiments:
[1] = molecular target: T1, human recombinant FAP protein (Homo sapiens, UniProt Q12884); assay: Inhibitory activity against FAP protease activity (Z-Gly-Pro-AMC fluorescence); format: biochemical; details: for inhibitory activity against FAP protease activity: in words
T1 construct: purchased Acrobiosystems FAP-H82Q6
T1 sequence (Q12884 1-760): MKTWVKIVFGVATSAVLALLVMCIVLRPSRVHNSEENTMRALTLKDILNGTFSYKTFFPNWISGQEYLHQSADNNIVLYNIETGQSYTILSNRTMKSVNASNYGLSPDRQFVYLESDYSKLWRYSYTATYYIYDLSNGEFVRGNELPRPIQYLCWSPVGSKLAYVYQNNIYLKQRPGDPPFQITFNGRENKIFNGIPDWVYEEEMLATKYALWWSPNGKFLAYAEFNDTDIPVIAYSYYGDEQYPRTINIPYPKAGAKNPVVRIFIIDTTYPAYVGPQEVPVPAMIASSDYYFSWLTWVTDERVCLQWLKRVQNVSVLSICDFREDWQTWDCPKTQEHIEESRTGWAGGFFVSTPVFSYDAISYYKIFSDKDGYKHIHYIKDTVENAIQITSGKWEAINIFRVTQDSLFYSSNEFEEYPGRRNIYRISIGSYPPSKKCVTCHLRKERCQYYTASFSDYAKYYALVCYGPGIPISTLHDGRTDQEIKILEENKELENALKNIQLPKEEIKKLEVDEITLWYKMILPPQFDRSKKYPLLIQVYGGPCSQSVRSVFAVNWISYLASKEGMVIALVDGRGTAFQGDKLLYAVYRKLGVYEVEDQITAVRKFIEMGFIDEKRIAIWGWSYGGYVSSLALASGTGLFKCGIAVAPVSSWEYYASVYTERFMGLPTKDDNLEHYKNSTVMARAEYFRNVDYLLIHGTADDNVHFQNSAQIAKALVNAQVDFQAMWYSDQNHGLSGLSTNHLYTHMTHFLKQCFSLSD
Description: The human recombinant FAP protein (Acrobiosystems, FAP-H82Q6) was diluted to a 125 pM FAP working solution with an assay buffer (50 mM Tris-HCl, 1 M NaCl, 1 mg/mL BSA, pH 7.5), and the FAP substrate (Z-Gly-Pro-AMC (LEONBIO, 68542-93-8)) was diluted to a 150 µM substrate working solution with the assay buffer. 40 µl of FAP working solution and 20 µl of compounds at different concentrations (4-fold dilution) were taken, then 40 µl of substrate working solution was added, and the mixture was uniformly mixed on a shaker at room temperature for 1 min. The uniformly mixed mixture was reacted at room temperature in the dark for 90 min. The fluorescence value Ex = 380 nm/Em = 460 nm was read by using a microplate reader. The original data was saved, and the IC50 value of the compound was obtained by using the original data or the Inhibition% via calculation and analyzing the data with Graphpad PRISM.

[2] = molecular target: T2, human recombinant DPP4 protein (Homo sapiens, UniProt P27487); assay: Inhibitory activity against DPP4 protease activity (H-Gly-Pro-AMC fluorescence); format: biochemical; details: 125 pM DPP4 working solution, 90 min at room temperature
T2 construct: purchased Acrobiosystems DP4-H5211
T2 sequence (P27487 whole entry): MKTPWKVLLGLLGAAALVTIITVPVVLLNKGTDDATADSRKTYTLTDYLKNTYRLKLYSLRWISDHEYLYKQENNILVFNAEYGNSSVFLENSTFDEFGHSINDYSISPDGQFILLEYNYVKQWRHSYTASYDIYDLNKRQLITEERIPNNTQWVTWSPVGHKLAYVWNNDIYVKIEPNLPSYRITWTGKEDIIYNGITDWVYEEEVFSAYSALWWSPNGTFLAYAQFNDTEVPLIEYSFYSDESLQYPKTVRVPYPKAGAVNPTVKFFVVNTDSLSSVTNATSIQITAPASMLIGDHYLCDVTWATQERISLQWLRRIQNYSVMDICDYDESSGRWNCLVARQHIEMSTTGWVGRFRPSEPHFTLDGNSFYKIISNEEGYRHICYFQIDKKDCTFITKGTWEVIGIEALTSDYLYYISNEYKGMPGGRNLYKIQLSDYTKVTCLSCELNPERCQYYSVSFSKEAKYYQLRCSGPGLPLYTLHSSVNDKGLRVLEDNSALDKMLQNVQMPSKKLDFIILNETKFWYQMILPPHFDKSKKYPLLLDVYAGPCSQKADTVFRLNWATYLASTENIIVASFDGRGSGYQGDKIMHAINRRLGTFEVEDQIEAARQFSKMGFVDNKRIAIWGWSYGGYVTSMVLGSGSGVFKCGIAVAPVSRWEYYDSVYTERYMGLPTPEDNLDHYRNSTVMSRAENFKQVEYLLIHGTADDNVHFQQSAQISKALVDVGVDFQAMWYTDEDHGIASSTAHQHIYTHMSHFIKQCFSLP
Description: The human recombinant DPP4 protein (Acrobiosystems, DP4-H5211) was formulated into a 125 pM working solution with an assay buffer (20 mM Tris-HCl, 100 mM NaCl), and the DPP4 substrate (H-Gly-Pro-AMC.HBr (LEONBIO, 115035-46-6)) was diluted to a 250 µM DPP4 substrate working solution with the assay buffer. 40 µl of DPP4 working solution and 20 µl of compounds at different concentrations (4-fold dilution) were taken, then 40 µl of DPP4 substrate working solution was added, and the mixture was uniformly mixed on a shaker at room temperature for 1 min. The uniformly mixed mixture was reacted at room temperature in the dark for 90 min. Reading was made by microplate reader at excitation and emission wavelengths of 380 nm and 460 nm. The original data was saved, and the IC50 value of the compound was obtained by analyzing the data with Graphpad PRISM.

[3] = 125 pM FAP working solution, 90 min at room temperature, read-out: FAP IC50

SMILES	IC50 [1] [nM]	IC50 [2] [nM]	IC50 [1, 3] [nM]	inhibitory activity against FAP protease activity [1]
CCCCCC(=O)N[C@H]1CSCc2cccc(c2)CSC[C@@H](CC(=O)N[C@@H](CC(=O)O)C(N)=O)NC(=O)[C@H](Cc2ccccc2)NC(=O)[C@H](CCC(N)=O)NC(=O)[C@H]([C@@H](C)O)NC(=O)[C@@H]2CCCN2C(=O)[C@@H]2CCCN2C1=O [Compound 1, Hex-Cys-Pro-Pro-Thr-Gln-Phe-beta-HomoCys-Asp-NH2 (Cys bridge DBMB) trifluoroacetate] (Hexanoyl-CPPTQF[β3hC]D-NH2; linker 1-7 via mXylylene)	2.91	> 10000		
CCCCCC(=O)N[C@H]1CSCc2cccc(c2)CSC[C@@H](CC(=O)O)NC(=O)[C@H](Cc2ccccc2)NC(=O)[C@H](CCC(N)=O)NC(=O)[C@H]([C@@H](C)O)NC(=O)[C@@H]2CCCN2C(=O)[C@@H]2CCCN2C1=O [Compound 2, Hex-Cys-Pro-Pro-Thr-Gln-Phe-beta-HomoCys-OH (Cys bridge DBMB) trifluoroacetate]	4.24	> 10000		
CCCCCC(=O)N[C@H]1CSCc2cccc(c2)CSC[C@@H](C(=O)O)NC(=O)[C@H](CC2CCCCC2)NC(=O)[C@H](CCC(N)=O)NC(=O)[C@H]([C@@H](C)O)NC(=O)[C@@H]2CCCN2C(=O)[C@@H]2CCCN2C1=O [Compound 3, Hex-Cys-Pro-Pro-Thr-Gln-Cha-Cys-OH (Cys bridge DBMB) trifluoroacetate] (Hexanoyl-CPPTQ[Cha]C-OH; linker 1-7 via mXylylene)	25.1	> 10000		
CCCCCC(=O)N[C@H]1CSCc2cccc(c2)CSC[C@@H](C(=O)O)NC(=O)[C@H](Cc2ccccc2)NC(=O)[C@H](CCC(N)=O)NC(=O)[C@H]([C@@H](C)O)NC(=O)[C@@H]2CCCN2C(=O)[C@@H]2CCCN2C1=O [Compound 3BP-4186, reference compound]	98.8	> 10000		
CCCCCC(=O)N[C@H]1CSCc2cccc(c2)CSC[C@@H](CN)NC(=O)[C@H](Cc2ccccc2)NC(=O)[C@H](CCC(N)=O)NC(=O)[C@H]([C@@H](C)O)NC(=O)[C@@H]2CCCN2C(=O)[C@@H]2CCCN2C1=O [Compound 4, Hex-Cys-Pro-Pro-Thr-Gln-Phe-Cys-CH2NH2 (Cys bridge DBMB) trifluoroacetate] (Hexanoyl-CPPTQF; linker 1-C via X6)	11.3			
CCCCCC(=O)N[C@H]1CSCc2cccc(c2)CSC[C@@H](CNC(C)=O)NC(=O)[C@H](Cc2ccccc2)NC(=O)[C@H](CCC(N)=O)NC(=O)[C@H]([C@@H](C)O)NC(=O)[C@@H]2CCCN2C(=O)[C@@H]2CCCN2C1=O [Compound 5, Hex-Cys-Pro-Pro-Thr-Gln-Phe-Cys-CH2NHAc (Cys bridge DBMB) trifluoroacetate] (Hexanoyl-CPPTQF; linker 1-C via X4)	1.8	> 10000		
CCCCCC(=O)N[C@H]1CSCc2cccc(c2F)CSC[C@@H](C(=O)O)NC(=O)[C@H](Cc2ccccc2)NC(=O)[C@H](CCC(N)=O)NC(=O)[C@H]([C@@H](C)O)NC(=O)[C@@H]2CCCN2C(=O)[C@@H]2CCCN2C1=O [Compound 6, Hex-Cys-Pro-Pro-Thr-Gln-Phe-Cys-OH (Cys bridge 2,6-bis(bromomethyl)fluorobenzene) trifluoroacetate]		> 10000	7.25	
CCCCCC(=O)N[C@@H]1CSCc2cc(CSCCNC(=O)CN3CCN(CC(=O)O)CCN(CC(=O)O)CCN(CC(=O)O)CC3)cc(c2)CSC[C@@H](CC(=O)O)NC(=O)[C@H](Cc2cccc3ccccc23)NC(=O)[C@H](CCC(N)=O)NC(=O)[C@H]([C@@H](C)O)NC(=O)[C@@H]2CCCN2C(=O)[C@@H]2CCCN2C1=O [Compound 78, Hexanoyl-(D-Cys(tMeBn(DOTA-AET))-Pro-Pro-Thr-Gln-1Nal-betahomoCys)-OH] (Hexanoyl-[dC]PPTQ[1Nal][β3hC]-OH; linker 1-7 via TBMB(SCH2CH2NH-DOTA))			14.7	good inhibitory activity
CCCCCC(=O)N[C@H]1CSCc2cc(CSCCNC(=O)CN3CCN(CC(=O)O)CCN(CC(=O)O)CCN(CC(=O)O)CC3)cc(c2)CSC[C@@H](CC(=O)O)NC(=O)[C@H](Cc2cccc3ccccc23)NC(=O)[C@H](CCC(N)=O)NC(=O)[C@H]([C@@H](C)O)NC(=O)[C@@H]2CCCN2C(=O)[C@H]2CCCN2C1=O [Compound 79, Hexanoyl-(Cys(tMeBn(DOTA-AET))-D-Pro-Pro-Thr-Gln-1Nal-betahomoCys)-OH] (Hexanoyl-C[dP]PTQ[1Nal][β3hC]-OH; linker 1-7 via TBMB(SCH2CH2NH-DOTA))			> 5000	
CCCCCC(=O)N[C@H]1CSCc2cc(CSCCNC(=O)CN3CCN(CC(=O)O)CCN(CC(=O)O)CCN(CC(=O)O)CC3)cc(c2)CSC[C@@H](CC(=O)O)NC(=O)[C@H](Cc2cccc3ccccc23)NC(=O)[C@H](CCC(N)=O)NC(=O)[C@H]([C@@H](C)O)NC(=O)[C@H]2CCCN2C(=O)[C@@H]2CCCN2C1=O [Compound 80, Hexanoyl-(Cys(tMeBn(DOTA-AET))-Pro-D-Pro-Thr-Gln-1Nal-betahomoCys)-OH] (Hexanoyl-CP[dP]TQ[1Nal][β3hC]-OH; linker 1-7 via TBMB(SCH2CH2NH-DOTA))			566	
CCCCCC(=O)N[C@H]1CSCc2cc(CSCCNC(=O)CN3CCN(CC(=O)O)CCN(CC(=O)O)CCN(CC(=O)O)CC3)cc(c2)CSC[C@@H](CC(=O)O)NC(=O)[C@H](Cc2cccc3ccccc23)NC(=O)[C@H](CCC(N)=O)NC(=O)[C@@H]([C@H](C)O)NC(=O)[C@@H]2CCCN2C(=O)[C@@H]2CCCN2C1=O [Compound 81, Hexanoyl-(Cys(tMeBn(DOTA-AET))-Pro-Pro-D-Thr-Gln-1Nal-betahomoCys)-OH] (Hexanoyl-CPP[dT]Q[1Nal][β3hC]-OH; linker 1-7 via TBMB(SCH2CH2NH-DOTA))			70.6	good inhibitory activity
CCCCCC(=O)N[C@H]1CSCc2cc(CSCCNC(=O)CN3CCN(CC(=O)O)CCN(CC(=O)O)CCN(CC(=O)O)CC3)cc(c2)CSC[C@@H](CC(=O)O)NC(=O)[C@H](Cc2cccc3ccccc23)NC(=O)[C@@H](CCC(N)=O)NC(=O)[C@H]([C@@H](C)O)NC(=O)[C@@H]2CCCN2C(=O)[C@@H]2CCCN2C1=O [Compound 82, Hexanoyl-(Cys(tMeBn(DOTA-AET))-Pro-Pro-Thr-D-Gln-1Nal-betahomoCys)-OH] (Hexanoyl-CPPT[dQ][1Nal][β3hC]-OH; linker 1-7 via TBMB(SCH2CH2NH-DOTA))			209	
CCCCCC(=O)N[C@H]1CSCc2cc(CSCCNC(=O)CN3CCN(CC(=O)O)CCN(CC(=O)O)CCN(CC(=O)O)CC3)cc(c2)CSC[C@@H](CC(=O)O)NC(=O)[C@@H](Cc2cccc3ccccc23)NC(=O)[C@H](CCC(N)=O)NC(=O)[C@H]([C@@H](C)O)NC(=O)[C@@H]2CCCN2C(=O)[C@@H]2CCCN2C1=O [Compound 83, Hexanoyl-(Cys(tMeBn(DOTA-AET))-Pro-Pro-Thr-Gln-D-1Nal-betahomoCys)-OH] (Hexanoyl-CPPTQ[d1Nal][β3hC]-OH; linker 1-7 via TBMB(SCH2CH2NH-DOTA))			1040	
CCCCCC(=O)N[C@H]1CSCc2cc(CSCCNC(=O)CN3CCN(CC(=O)O)CCN(CC(=O)O)CCN(CC(=O)O)CC3)cc(c2)CSC[C@H](CC(=O)O)NC(=O)[C@H](Cc2cccc3ccccc23)NC(=O)[C@H](CCC(N)=O)NC(=O)[C@H]([C@@H](C)O)NC(=O)[C@@H]2CCCN2C(=O)[C@@H]2CCCN2C1=O [Compound 84, Hexanoyl-(Cys(tMeBn(DOTA-AET))-Pro-Pro-Thr-Gln-1Nal-D-betahomoCys)-OH] (Hexanoyl-CPPTQ[1Nal][d(β3hC)]-OH; linker 1-7 via TBMB(SCH2CH2NH-DOTA))			6.7	good inhibitory activity
